Results published in patent publication EP4635500A1, “THERAPEUTIC AGENT FOR BACTERIAL INFECTION” (Sumitomo Pharma Co., Ltd., priority 2022, dated 2024).
≈ marks a conversion by molar mass, not a printed value. Where two headings read alike, the source gives them in different places.

Tested on: Enterobacterales
Assay: MIC, broth microdilution, CDC/FDA Antibiotic Resistance Isolate Bank (Example 7, Tables 8, 11, 12)
Format: cell-based

Molecule `C[C@@H](O)[C@H]1C(=O)N2C(C(=O)O)=C(S[C@@H]3CN[C@H](C(=O)N(C)C)C3)[C@H](C)[C@H]12` [MEPM, meropenem] has an MIC (Klebsiella pneumoniae, KUB No. 5636, AR Bank# 139, NDM-1, read-out: MIC) of 0.12 µg/mL (≈ 0.313 µM), an MIC (Klebsiella pneumoniae, KUB No. 5637, AR Bank# 140, OXA-181, read-out: MIC) of 1 µg/mL (≈ 2.61 µM) and an MIC (Klebsiella pneumoniae, KUB No. 5639, AR Bank# 142, OXA-181, read-out: MIC) of 1 µg/mL (≈ 2.61 µM). For the same molecule, the MIC (Klebsiella pneumoniae, KUB No. 5640, AR Bank# 143, NDM-L, read-out: MIC) was greater than 32 µg/mL, the MIC (Klebsiella pneumoniae, KUB No. 5642, AR Bank# 145, NDM-1, read-out: MIC) was 8 µg/mL (≈ 20.9 µM) and the MIC (Klebsiella pneumoniae, KUB No. 5643, AR Bank# 146, NDM-1, read-out: MIC) was 8 µg/mL (≈ 20.9 µM). It also gave an MIC (Klebsiella pneumoniae, KUB No. 5645, AR Bank# 148, NDM-1, read-out: MIC) of 8 µg/mL (≈ 20.9 µM), an MIC (Klebsiella pneumoniae, KUB No. 5650, AR Bank# 153, OXA-232, NDM-1, read-out: MIC) greater than 32 µg/mL and an MIC (Klebsiella pneumoniae, KUB No. 5655, AR Bank# 158, NDM-1, read-out: MIC) of 8 µg/mL (≈ 20.9 µM). It also gave an MIC (Klebsiella pneumoniae, KUB No. 5657, AR Bank# 160, OXA-48, read-out: MIC) of 8 µg/mL (≈ 20.9 µM), an MIC (Klebsiella pneumoniae, KUB No. 5757, AR Bank# 361, KPC-2, read-out: MIC) of 8 µg/mL (≈ 20.9 µM) and an MIC (Klebsiella pneumoniae, KUB No. 5758, AR Bank# 362, KPC-2, read-out: MIC) of 8 µg/mL (≈ 20.9 µM). The MIC (Klebsiella pneumoniae, KUB No. 5759, AR Bank# 363, KPC-2, read-out: MIC) was 4 µg/mL (≈ 10.4 µM), the MIC (Klebsiella pneumoniae, KUB No. 5760, AR Bank# 364, no carbapenemase genes, read-out: MIC) was 1 µg/mL (≈ 2.61 µM) and the MIC (Klebsiella pneumoniae, KUB No. 5772, AR Bank# 376, no carbapenemase genes, read-out: MIC) was 0.12 µg/mL (≈ 0.313 µM). It also gave an MIC (Klebsiella pneumoniae, KUB No. 5797, AR Bank# 453, KPC-3, read-out: MIC) greater than 32 µg/mL, an MIC (Klebsiella pneumoniae, KUB No. 5809, AR Bank# 504, OXA-48, read-out: MIC) of 4 µg/mL (≈ 10.4 µM) and an MIC (Klebsiella pneumoniae, KUB No. 5810, AR Bank# 505, NDM-1, read-out: MIC) of 16 µg/mL (≈ 41.7 µM). The MIC (Klebsiella pneumoniae, KUB No. 5811, AR Bank# 506, NDM-1, read-out: MIC) was 16 µg/mL (≈ 41.7 µM), the MIC (Klebsiella pneumoniae, KUB No. 5812, AR Bank# 507, OXA-232, NDM-1, read-out: MIC) was greater than 32 µg/mL and the MIC (Klebsiella pneumoniae, KUB No. 5827, AR Bank# 522, KPC-2, read-out: MIC) was 8 µg/mL (≈ 20.9 µM). It also gave an MIC (Klebsiella pneumoniae, KUB No. 5828, AR Bank# 523, KPC-2 (row continued in Table 8-7), read-out: MIC) of 16 µg/mL (≈ 41.7 µM), an MIC (Klebsiella pneumoniae, KUB No. 5829, AR Bank# 524, KPC-3, read-out: MIC) of 16 µg/mL (≈ 41.7 µM) and an MIC (Klebsiella pneumoniae, KUB No. 5830, AR Bank# 525, KPC-11, read-out: MIC) of 8 µg/mL (≈ 20.9 µM). It also gave an MIC (Klebsiella pneumonice, KUB No. 5649, AR Bank# 152, NDM-1, read-out: MIC) of 8 µg/mL (≈ 20.9 µM), an MIC (Kluyvera ascorbata) of 2 µg/mL (≈ 5.22 µM) and an MIC (Morganella morganii, KUB No. 5630, AR Bank# 133, KPC-2, read-out: MIC) of 1 µg/mL (≈ 2.61 µM). The MIC (Morganella morganii, KUB No. 5824, AR Bank# 519, no carbapenemase genes, read-out: MIC) was 2 µg/mL (≈ 5.22 µM), the MIC (Proteus mirabilis, KUB No. 5556, AR Bank # 59, no carbapenemase gene, read-out: MIC) was 0.12 µg/mL (≈ 0.313 µM) and the MIC (Proteus mirabilis, KUB No. 5652, AR Bank# 155, KPC-6, read-out: MIC) was 1 µg/mL (≈ 2.61 µM). The MIC (Proteus mirabilis, KUB No. 5653, AR Bank# 156, KPC-2, read-out: MIC) was 0.12 µg/mL (≈ 0.313 µM), the MIC (Proteus mirabilis, KUB No. 5656, AR Bank# 159, NDM-1, read-out: MIC) was 2 µg/mL (≈ 5.22 µM) and the MIC (Proteus mirabilis, KUB No. 5773, AR Bank# 377, KPC-3, read-out: MIC) was 1 µg/mL (≈ 2.61 µM). The MIC (Proteus mirabilis, KUB No. 5775, AR Bank# 379, no carbapenemase genes, read-out: MIC) was no more than 0.06 µg/mL, the MIC (Providencia rettgeri) was 8 µg/mL (≈ 20.9 µM) and the MIC (Salmonella enterica) was 16 µg/mL (≈ 41.7 µM). It also gave an MIC (Serratia marcescens, KUB No. 5588, AR Bank # 91, SME-3, read-out: MIC) of 16 µg/mL (≈ 41.7 µM), an MIC (Serratia marcescens, KUB No. 5596, AR Bank # 99, SME-3, read-out: MIC) of 16 µg/mL (≈ 41.7 µM) and an MIC (Serratia marcescens, KUB No. 5618, AR Bank # 121, SME-3, read-out: MIC) of 16 µg/mL (≈ 41.7 µM). For the same molecule, the MIC (Serratia marcescens, KUB No. 5619, AR Bank # 122, SME-3, read-out: MIC) was 32 µg/mL (≈ 83.4 µM), the MIC (Serratia marcescens, KUB No. 5620, AR Bank # 123, SME-3, read-out: MIC) was 2 µg/mL (≈ 5.22 µM) and the MIC (Serratia marcescens, KUB No. 5621, AR Bank # 124, SME-3, read-out: MIC) was 32 µg/mL (≈ 83.4 µM). For the same molecule, the MIC (Serratia marcescens, KUB No. 5627, AR Bank # 130, SME-3, read-out: MIC) was 8 µg/mL (≈ 20.9 µM), the MIC (Serratia marcescens, KUB No. 5628, AR Bank # 131, SME-3, read-out: MIC) was 0.5 µg/mL (≈ 1.3 µM) and the MIC (Serratia marcescens, KUB No. 5822, AR Bank# 517, KPC-3, read-out: MIC) was 8 µg/mL (≈ 20.9 µM). The MIC (Serratia marcescens, KUB No. 5825, AR Bank# 520, no carbapenemase genes, read-out: MIC) was no more than 0.06 µg/mL and the MIC (Serratia marcescens, KUB No. 5826, AR Bank# 521, no carbapenemase genes, read-out: MIC) was no more than 0.06 µg/mL.
